The values that follow come from patent publication US8648076B2, “Cysteine protease inhibitors and their therapeutic applications” (Hybrigenics SA, priority 2005, dated 2014).

Like-named read-outs stand apart in the source and are kept apart here.

Common to all, as to type: biochemical
One assay concerns the target T1, Caspase 3 (Homo sapiens, UniProt P42574).
T1 sequence (P42574 29-175 limits assumed): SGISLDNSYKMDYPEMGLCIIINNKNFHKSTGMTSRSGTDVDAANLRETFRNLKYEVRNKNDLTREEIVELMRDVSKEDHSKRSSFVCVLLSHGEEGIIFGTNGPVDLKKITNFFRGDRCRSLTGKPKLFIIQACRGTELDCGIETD
T1 sequence (P42574 176-277 limits assumed): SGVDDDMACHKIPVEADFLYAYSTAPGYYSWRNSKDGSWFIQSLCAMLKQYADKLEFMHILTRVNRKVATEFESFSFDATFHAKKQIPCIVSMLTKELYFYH
The assay is described as follows: Caspase 3 activity assay. Conditions: 500 nM Ac-DEVD-AMC, 3.2 nM enzyme, 30 min pre-incubation at 25° C., 60 min at 37° C.; sigmoidal fit; AF: Autofluorescent; read-out: Casp3 (inhibition of cysteine protease activity). The method, then:
Compounds stocks (100 mM) were stored at −20° C. in DMSO. […] Reactions were performed as duplicates in Black LJL 96 well plates (HE microplates; Molecular Devices; 20 μl final reaction volume). The substrate concentration for caspase 3 specificity assay was 500 nM (Ac-DEVD-AMC; Promega). […] The concentrations were determined in order to perform specificity assays under initial velocities at fixed substrate concentration. Compounds were pre-incubated with enzymes for 30 minutes at 25° C. Reactions were initiated by addition of substrate to the plates containing the enzymes (+/−compounds) diluted in assay buffer. Reactions were incubated for 60 minutes at 37° C. Reactions were stopped by adding acetic acid (100 mM final). Readings were performed on a Pherastar Fluorescent Reader (BMG). δ Emission 380 nm; δ Excitation=460 nm. Data (mean values+/− standard deviation) were analyzed as % of control (no compound) and plotted as percentage versus the Log of the compound concentration using GraphPad (Prism). Data were fitted to a sigmoidal model (variable slope).

The next assay deals with T2, USP7 (Homo sapiens, UniProt Q93009).
T2 construct: His tag (from pFastBac-HT vector) (N); made in house; host or cells: insect cells (Sf9 or High Five), baculovirus
The assay is described as follows: USP7 activity assay.

In another assay the target is T3, Uch-L3 (Homo sapiens, UniProt P15374).
T3 sequence (P15374 1-230): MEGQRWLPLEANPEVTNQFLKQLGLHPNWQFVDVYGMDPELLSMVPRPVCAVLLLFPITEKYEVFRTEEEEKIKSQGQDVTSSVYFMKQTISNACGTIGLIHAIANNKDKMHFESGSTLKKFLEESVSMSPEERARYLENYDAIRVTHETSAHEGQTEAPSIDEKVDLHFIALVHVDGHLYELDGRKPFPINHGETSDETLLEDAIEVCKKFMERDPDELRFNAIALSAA
The assay is described as follows: UCH-L3 activity assay. Conditions: 400 nM Ub-AMC, 13 pM enzyme, 30 min pre-incubation at 25° C., 60 min at 37° C.; sigmoidal fit; AF: Autofluorescent; read-out: Uch-L3 (inhibition of cysteine protease activity). The essentials: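 Compounds were pre-incubated with 13 pM Uch-L3 for 30 min at 25° C in pH 7.6 buffer with 0.05 mg/ml BSA. Reactions ran 60 min at 37° C with 400 nM Ub-AMC, were stopped with 100 mM acetic acid, and AMC fluorescence was read. Duplicates were expressed as % of no-compound control and fitted to a variable-slope sigmoid.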

Another assay addresses T4, USP8 (Homo sapiens, UniProt P40818).
T4 sequence (P40818 1-1118): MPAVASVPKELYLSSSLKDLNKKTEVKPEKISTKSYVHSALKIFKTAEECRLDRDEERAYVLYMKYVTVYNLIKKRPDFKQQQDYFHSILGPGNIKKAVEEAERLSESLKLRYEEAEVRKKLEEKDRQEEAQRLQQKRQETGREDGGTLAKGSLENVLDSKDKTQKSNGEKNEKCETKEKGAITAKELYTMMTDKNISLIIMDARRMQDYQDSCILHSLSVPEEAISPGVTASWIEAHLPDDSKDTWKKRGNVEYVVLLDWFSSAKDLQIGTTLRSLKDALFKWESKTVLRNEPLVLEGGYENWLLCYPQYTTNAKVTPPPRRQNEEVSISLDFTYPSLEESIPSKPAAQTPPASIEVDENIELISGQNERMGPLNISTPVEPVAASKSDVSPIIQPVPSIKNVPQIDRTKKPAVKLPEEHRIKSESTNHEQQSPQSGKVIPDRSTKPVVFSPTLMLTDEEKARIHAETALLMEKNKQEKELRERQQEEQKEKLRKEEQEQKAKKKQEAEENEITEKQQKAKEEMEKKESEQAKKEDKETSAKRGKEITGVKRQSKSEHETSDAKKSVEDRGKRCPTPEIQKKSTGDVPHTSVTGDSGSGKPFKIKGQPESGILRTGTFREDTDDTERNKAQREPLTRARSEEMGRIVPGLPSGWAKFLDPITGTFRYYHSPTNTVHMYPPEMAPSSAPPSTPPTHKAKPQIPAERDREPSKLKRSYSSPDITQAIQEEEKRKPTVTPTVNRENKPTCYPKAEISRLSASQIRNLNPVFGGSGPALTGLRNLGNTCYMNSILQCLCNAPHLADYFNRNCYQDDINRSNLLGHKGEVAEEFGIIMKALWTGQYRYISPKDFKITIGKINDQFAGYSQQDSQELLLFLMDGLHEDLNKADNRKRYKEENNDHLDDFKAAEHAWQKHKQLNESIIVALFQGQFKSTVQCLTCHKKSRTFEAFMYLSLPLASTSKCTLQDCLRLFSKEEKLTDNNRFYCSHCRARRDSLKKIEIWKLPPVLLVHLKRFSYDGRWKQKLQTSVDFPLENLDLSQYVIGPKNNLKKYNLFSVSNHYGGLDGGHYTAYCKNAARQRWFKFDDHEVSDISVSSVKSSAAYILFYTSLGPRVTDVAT
The assay is described as follows: USP8 activity assay. To be noted: 400 nM Ub-AMC, pH8.8, 30 min pre-incubation at 25° C., 60 min at 37° C.; sigmoidal fit; AF: Autofluorescent; read-out: USP 8 (inhibition of cysteine protease activity).

Setting [1] is: 400 nM Ub-AMC, 152 pM enzyme, 30 min pre-incubation at 25° C., 60 min at 37° C., sigmoidal fit, read-out: USP 7 (inhibition of cysteine protease activity).

T2 sequence (Q93009 whole entry): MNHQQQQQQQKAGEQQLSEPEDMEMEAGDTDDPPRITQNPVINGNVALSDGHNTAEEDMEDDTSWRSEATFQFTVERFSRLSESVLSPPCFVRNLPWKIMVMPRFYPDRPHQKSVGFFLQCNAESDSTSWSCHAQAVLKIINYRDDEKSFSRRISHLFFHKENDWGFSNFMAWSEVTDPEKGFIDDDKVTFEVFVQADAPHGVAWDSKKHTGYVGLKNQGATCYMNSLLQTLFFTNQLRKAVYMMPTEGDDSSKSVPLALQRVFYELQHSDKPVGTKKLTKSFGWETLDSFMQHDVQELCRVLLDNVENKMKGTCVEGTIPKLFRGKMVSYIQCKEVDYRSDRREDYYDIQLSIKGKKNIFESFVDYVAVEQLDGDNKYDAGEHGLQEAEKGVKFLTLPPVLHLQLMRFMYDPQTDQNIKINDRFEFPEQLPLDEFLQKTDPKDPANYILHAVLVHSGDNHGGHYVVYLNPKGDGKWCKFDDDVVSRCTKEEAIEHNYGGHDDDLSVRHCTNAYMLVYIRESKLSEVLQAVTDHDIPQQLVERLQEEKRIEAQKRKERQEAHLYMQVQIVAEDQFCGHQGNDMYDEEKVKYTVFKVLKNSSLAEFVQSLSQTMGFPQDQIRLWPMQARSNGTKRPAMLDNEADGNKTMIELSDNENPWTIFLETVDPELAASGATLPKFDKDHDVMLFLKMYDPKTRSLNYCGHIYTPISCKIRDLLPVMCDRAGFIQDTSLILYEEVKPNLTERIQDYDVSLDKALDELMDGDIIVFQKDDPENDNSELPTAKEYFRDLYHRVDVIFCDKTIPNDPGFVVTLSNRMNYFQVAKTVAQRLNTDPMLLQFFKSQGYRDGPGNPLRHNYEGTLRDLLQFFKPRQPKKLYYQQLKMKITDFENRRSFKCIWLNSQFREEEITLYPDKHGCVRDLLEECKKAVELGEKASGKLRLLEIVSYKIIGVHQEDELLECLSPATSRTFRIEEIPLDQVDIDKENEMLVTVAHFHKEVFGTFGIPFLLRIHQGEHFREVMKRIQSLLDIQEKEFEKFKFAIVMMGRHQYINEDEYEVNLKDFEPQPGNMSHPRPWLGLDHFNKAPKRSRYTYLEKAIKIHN

As to `Cc1cccc2c1Cc1nc(C#N)c(C#N)nc1-2` [Example 16c, 8-Methyl-9H-indeno[1,2-b]pyrazine-2,3-dicarbonitrile], the IC50 at Caspase 3, on USP7 (setting [1]), at Uch-L3 and on USP8 was over 100000 nM each time.

Turning to `CN(C)c1nc2c(nc1C#N)C(=O)c1ccccc1-2` [Example 4, 3-dimethylamino-9-oxo-9H-indeno[1,2-b]pyrazine-2-carbonitrile], the IC50 at Caspase 3, on USP7 (setting [1]), on Uch-L3 and at USP8 was over 100000 nM in each case.

`N#Cc1nc2c(nc1C#N)-c1ccccc1C2=Nc1ccccc1` (mixture of isomers) [Example 14, 9-[phenylimino]-9H-indeno[1,2-b]pyrazine-2,3-dicarbonitrile]: the IC50 on Caspase 3 came to 1300 nM; on USP7 (setting [1]) it was 4100 nM; at Uch-L3, 390 nM; on USP8 it was 350 nM.

In the case of `COc1ccc(OC)c2c1C(=O)c1nc(C#N)c(C#N)nc1-2` [Example 17f, 5,8-Dimethoxy-9-oxo-9H-indeno[1,2-b]pyrazine-2,3-dicarbonitrile], the IC50 at Caspase 3 came to 2000 nM; at USP7 (setting [1]) it was 12700 nM; at Uch-L3, 600 nM; on USP8 it was 810 nM.

On to `N#Cc1nc2c(nc1C#N)C(=O)c1ccccc1C2=O` [Example 20, 5,10-dioxo-5,10-dihydro-benzo[g]quinoxaline-2,3-dicarbonitrile], for which the IC50 was over 100000 nM on Caspase 3, over 100000 nM against USP7, 39600 nM on Uch-L3 and over 100000 nM on USP8.

Consider `COc1nc2c(nc1C#N)C(=O)c1ccccc1-2` [Example 3, 3-methoxy-9-oxo-9H-indeno[1,2-b]pyrazine-2-carbonitrile], for which the IC50 was over 100000 nM at Caspase 3, over 100000 nM at USP7 (setting [1]), 13000 nM on Uch-L3 and 31000 nM on USP8.

Consider `COc1ccc2c(c1)C(=O)c1nc(C#N)c(C#N)nc1-2` [Example 17i, 7-Methoxy-9-oxo-9H-indeno[1,2-b]pyrazine-2,3-dicarbonitrile], for which the IC50 is 2000 nM on Caspase 3, over 100000 nM on USP7 (setting [1]), 3100 nM at Uch-L3 and 2100 nM at USP8.

As to `N#Cc1nc2c(nc1C(N)=O)-c1ccccc1/C2=N\OCC(=O)NCC(=O)O` [Example 41, [2-(3-carbamoyl-2-cyano-indeno[1,2-b]pyrazin-9-ylideneaminooxy)-acetylamino]-acetic acid], the IC50 on Caspase 3 turned out to be 1980 nM; on USP7, 4280 nM; on Uch-L3, 328 nM; at USP8 it was 118 nM.

Regarding `CCOC(=O)CO/N=C1\c2ccccc2-c2nc(C(N)=O)c(C#N)nc21` [Example 37, (3-carbamoyl-2-cyano-indeno[1,2-b]pyrazin-9-ylideneaminooxy)-acetic acid ethyl ester], the IC50 on Caspase 3 turned out to be 1160 nM; at USP7 (setting [1]), 2330 nM; at Uch-L3, 393 nM; on USP8, 200 nM.

`N#Cc1nc2c(nc1C#N)-c1ccc(Cl)cc1C2=NOCCOc1ccccc1` [Example 27b, 7-Chloro-9-(2-phenoxy-ethoxyimino)-9H-indeno[1,2-b]pyrazine-2,3-dicarbonitrile]: the IC50 at Caspase 3 is over 100000 nM; at USP7 it was over 100000 nM; at Uch-L3, 1700 nM; on USP8 it was 11300 nM.

For the compound `N#Cc1nc2c(nc1Cl)-c1ccccc1C2=O` [Example 9, 3-chloro-9-oxo-9H-indeno[1,2-b]pyrazine-2-carbonitrile], the IC50 at Caspase 3 was over 100000 nM; on USP7 (setting [1]), over 100000 nM; at Uch-L3 it was 8800 nM; on USP8 it was 16200 nM.

Consider `N#Cc1nc2c(nc1O)-c1ccc(Cl)cc1C2=O` [Example 42, 7-chloro-3-hydroxy-9-oxo-9H-indeno[1,2-b]pyrazine-2-carbonitrile], for which the IC50 at Caspase 3, against USP7, on Uch-L3 and at USP8 was over 100000 nM each time.

Take `CCOC(=O)CNC(=O)CO/N=C1\c2ccccc2-c2nc(C(N)=O)c(C#N)nc21` [Example 40, [2-(3-carbamoyl-2-cyano-indeno[1,2-b]pyrazin-9-ylideneaminooxy)-acetylamino]-acetic acid ethyl ester]: the IC50 is 857 nM on Caspase 3, 2800 nM on USP7 (setting [1]), 245 nM at Uch-L3 and 155 nM on USP8.

As for `CCc1ccc2c(c1)-c1nc(C#N)c(C#N)nc1C2=O` [Example 32, 6-ethyl-9-oxo-9H-indeno[1,2-b]pyrazine-2,3-dicarbonitrile], the IC50 was determined as 3600 nM at Caspase 3, 2590 nM at USP7, 258 nM at Uch-L3 and 111 nM on USP8.

As for `N#Cc1nc2c(nc1N)-c1ccccc1C2=O` [Example 7, 3-amino-9-oxo-9H-indeno[1,2-b]pyrazine-2-carbonitrile], the IC50 was over 100000 nM on Caspase 3, over 100000 nM on USP7 (setting [1]), 52000 nM on Uch-L3 and 48000 nM on USP8.

Regarding `CC(=O)O/N=C1\c2ccccc2-c2nc(C(N)=O)c(C#N)nc21` (single isomer, unassigned) [Example 35, 2-cyano-9-acetoxyimino-9H-indeno[1,2-b]pyrazine-3-carboxylic acid amide], the IC50 on Caspase 3 worked out at 120 nM; against USP7, 506 nM; on Uch-L3, 48 nM; on USP8 it was 27 nM.

Turning to `N#Cc1nc2c(nc1C#N)-c1ccc(Cl)cc1C2=NNC(N)=O` [Example 43, 9-[(aminocarbonyl)hydrazono]-7-chloro-9H-indeno[1,2-b]pyrazine-2,3-dicarbonitrile], the IC50 on Caspase 3 was 64900 nM; against USP7, over 100000 nM; at Uch-L3, 13500 nM; at USP8, 814 nM.

`N#Cc1nc2c(nc1C#N)-c1ccc(F)cc1C2=O` [Example 17h, 7-Fluoro-9-oxo-9H-indeno[1,2-b]pyrazine-2,3-dicarbonitrile]: the IC50 at Caspase 3 amounted to 1000 nM; on USP7 (setting [1]) it was 4300 nM; on Uch-L3 it was 330 nM; at USP8 it was 250 nM.
